Experimental data: patent publication US12605442B2 (priority 2020, dated 2026)
Entries after “also recorded” stand apart in the source; their conditions may differ.

How the values were obtained:
[1] = test system: recombinant AAV; experiment: AAV particle size by dynamic light scattering; assay type: physicochemical
[2] = test system: recombinant adeno-associated virus (AAV); conditions: reagent alone, room temperature, 2 hours
[3] = test system: lentivirus; experiment: lentivirus inactivation by photosensitizer and UV light
[4] = test system: MERS CoV; conditions: riboflavin 50 micromolar and UV light, six minutes, plasma; cited from earlier work
[5] = test system: SARS-CoV-2; experiment: SARS-CoV-2 inactivation in Mirasol device; conditions: 50 μM riboflavin
[6] = rats

Structure (SMILES)	change in particle size distribution ([1]; 1.5 mM psoralen and UV light)	infectious titer of recombinant AAV [2]	time to inactivation of lentivirus ([3]; 1.5 mM psoralen and UV light)	MERS coronavirus titers [4]	average hydrodynamic radius of viral aggregates ([1]; 50 μM riboflavin and UV light, later time points)	Log Reduction in viral titer ([5]; 100 Joules UV in 19 seconds, 100 mLs, limit of detection 1.0 Log per mL)	inactivation of SARS-CoV-2 ([5]; about 100 Joules UV, to the limit of detection)	time to complete inactivation of lentivirus ([3]; 50 μM riboflavin in the presence of UV light) [min]	toxicity of residual riboflavin remaining after viral inactivation [6]
O=c1ccc2cc3ccoc3cc2o1 [psoralen]	No significant change in particle size distribution	reduce the infectious titer	approximately 2 hours						
Cc1cc2nc3c(=O)[nH]c(=O)nc-3n(C[C@H](O)[C@H](O)[C@H](O)CO)c2cc1C [riboflavin]		reduce the infectious titer		reduction	greater than 60 nm	greater than 4.2 Log	Complete inactivation; also recorded: completely inactivated	≤ 20	does not induce toxicity
